Source: the NIST ThermoML archive (doi:10.1016/j.tca.2019.05.006)
Numbers after ± are expanded uncertainties.

Test: molar heat capacity at constant pressure
Conditions: 101.33 kPa, Crystal, DSC

[Cu+2].[O-2] [copper(II) oxide]
Conditions	molar heat capacity at constant pressure [J/K/mol]
300 K	44.4 ± 22
325 K	45.8 ± 28
350 K	46.8 ± 28
375 K	47.7 ± 22
400 K	48.5 ± 26
425 K	49.2 ± 24
450 K	49.7 ± 28
475 K	50.3 ± 24
500 K	50.8 ± 26
525 K	51.2 ± 28
550 K	51.6 ± 26
575 K	51.9 ± 26
600 K	52.3 ± 22
625 K	52.6 ± 26
650 K	52.9 ± 28
675 K	53.2 ± 28
700 K	53.5 ± 24
725 K	53.8 ± 26
750 K	54 ± 28
775 K	54.3 ± 26
800 K	54.5 ± 24
825 K	54.7 ± 24
